# Values quoted from earlier work as cited in patent US20250042880A1 (UNIVERSITY OF KENTUCKY RESEARCH FOUNDATION, priority 2021, published 2025).
# Experiments:
# GLUT1 = target: T1, GLUT1 (Homo sapiens, UniProt P11166); conditions: cited from earlier work
# T1 sequence (P11166 1-492): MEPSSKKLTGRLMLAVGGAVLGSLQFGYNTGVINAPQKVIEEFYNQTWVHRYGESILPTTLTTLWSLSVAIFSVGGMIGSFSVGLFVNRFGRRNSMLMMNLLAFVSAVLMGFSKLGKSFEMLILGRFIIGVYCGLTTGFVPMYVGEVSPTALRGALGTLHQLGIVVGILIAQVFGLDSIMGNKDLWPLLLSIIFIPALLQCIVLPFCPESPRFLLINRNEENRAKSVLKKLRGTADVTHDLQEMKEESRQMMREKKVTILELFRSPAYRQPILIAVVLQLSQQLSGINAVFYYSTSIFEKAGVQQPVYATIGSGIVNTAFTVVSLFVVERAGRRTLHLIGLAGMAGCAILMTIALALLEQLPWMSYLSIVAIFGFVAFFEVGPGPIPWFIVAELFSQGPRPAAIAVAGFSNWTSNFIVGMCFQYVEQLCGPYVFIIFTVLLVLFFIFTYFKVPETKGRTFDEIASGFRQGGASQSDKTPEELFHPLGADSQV
# [1] = tested on: SKOV-3 ovarian cancer xenograft; conditions: 4.5 mg/kg/day for 4 weeks; cited from earlier work
# SKOV-3 cells = conditions: growth inhibition; cited from earlier work
# [2] = tested on: A2780 ovarian cancer cells; conditions: cited from earlier work
# [3] = tested on: BT549, MDA-MB-436 and HCC70; conditions: 3 μM; cited from earlier work
smiles,measurement,setting,value
"Cc1c(NC(=O)c2cc(C(N)=O)nc3cc(F)ccc23)c(C(F)(F)F)nn1Cc1ccc(C#N)cc1 [BAY-876, N^4-[1-(4-cyanobenzyl)-5-methyl-3-(trifluoromethyl)-1H-pyrazol-4-yl]-7-fluoroquinoline-2,4-dicarboxamide]",potency for the GLUT1 transporter,GLUT1,"single-digit, nanomolar"
same,"selectivity factor for GLUT1 in comparison with GLUT2, GLUT3 and GLUT4",GLUT1,> 100
same,average weight loss compared to the control group,[1],18%
same,reduction of average tumor volumes,[1],68%
same,reduction of tumor weights,[1],66%
same,IC50,SKOV-3 cells,188 nM
same,sensitivity of A2780 ovarian cancer cells,[2],resistant
same,"growth of TNBC cell lines BT549, MDA-MB-436 and HCC70",[3],did not inhibit the growth
